In publication PMC5142287, “Weight control interventions improve therapeutic efficacy of dacarbazine in melanoma by reversing obesity-induced drug resistance” (Cancer & Metabolism, 2016):

Columns and labels:
B16F10 melanoma [1] = assay: B16F10 melanoma isograft in ND C57BL/6J mice: tumor growth and survival
Procedure: Melanoma cells were injected and orlistat treatment was continued. Following tumor formation, all groups of mice were treated with vehicle (acidified water) or DTIC, and tumor volume was followed up in these mice throughout the study as mentioned above. […] At the end of the experiment, mice were sacrificed, tumors were excised, and the samples were immediately preserved at −80 °C until further use. Five mice from each group were followed up for survival studies as mentioned above.

B16F10 melanoma [2] = assay: B16F10 melanoma isograft in HFD (obese) C57BL/6J mice: tumor growth and survival; format: in vivo; conditions: HFD mice, vs untreated counterparts
Procedure: (§1) To study the impact of diet-induced obesity on the outcome of DTIC therapy in melanoma, we treated B16F10 melanoma isografted obese mice with DTIC purchased from Sigma, USA (80 mg/kg intraperitoneally for five consecutive days as described previously). In addition, to look into the impact of weight loss interventions on the outcome of DTIC therapy in obese mice, mice were administered with orlistat (an antiobesity drug known to inhibit gastrointestinal lipases) and/or shifted from high fat to normal diet followed by DTIC treatment. The detailed experimental plan is illustrated in Fig. 1a. Briefly, obese mice were administered orally with orlistat (10 mg/kg on every alternate day) purchased from Enzo Life Sciences, NY, USA, and/or shifted from high fat diet to normal diet. HFD C57BL/6J mice treated with vehicle or orlistat were termed as HFD-HFD Ctrl and HFD-HFD Orli (N = 11 per each group), respectively, whereas HFD C57BL/6J mice shifted to normal diet and treated with vehicle or orlistat were grouped as HFD-ND Ctrl and HFD-ND Orli (N = 11 per each group), respectively. After 15 days, these mice were injected subcutaneously (s.c.) with B16F10 cells (2 × 10^5) in 100 μl of PBS and monitored daily for the presence of palpable tumors and dimensions were recorded on alternate days. […] Tumor volume was calculated using the formula 0.52 × length × width^2 and was followed up throughout the study.

[3] = Obesity-associated factors in B16F10-isografted ND C57BL/6J mice; format: in vivo; conditions: end of experiment
Source text: (§2) Blood glucose levels and serum lipids were estimated as described previously. Insulin, leptin, and adiponectin levels in the serum were estimated by mouse-specific respective ELISA kits as described. Resistin, IL-6, and TNF-α levels in the serum were detected by indirect ELISA as described previously.

3T3-L1 adipocytes = tested on: 3T3-L1 adipocytes; parameters: method as in PMID 10840932; conditions: cited from earlier work
[4] = Obesity-associated factors in B16F10-isografted HFD C57BL/6J mice (body weight, blood glucose, serum lipids, ELISA); format: in vivo; conditions: end of experiment, mean ± SD
Source text: C57BL/6J mice were procured from Experimental Animal Facility (EAF) at National Centre for Cell Science (NCCS), Pune, India. High fat diet (24% fat) was purchased from Provimi Animal Nutrition Pvt. Ltd., Bangalore, India, and normal diet (5% fat) was obtained from Amrut Laboratory, Pune, India. The compositions of diets are provided in supplementary data (Additional file 1: Table S1). Diet-induced obesity was developed in the mice by feeding them with high fat diet as described previously. Male C57BL/6J mice (6–8 weeks old) were divided into normal diet (ND) and high fat diet (HFD) group. ND group was fed with normal diet while HFD group was fed with high fat diet supplemented with ground nut and dried coconut for 6 months. Body weight and serum chemistry profile were measured monthly to verify obesity-associated changes. Water and food were provided ad libitum to all the mice. All animal experiments were carried out as per the requirement and guidelines of the Committee for the Purpose of Control and Supervision of Experiments on Animals (CPCSEA), Government of India, and after obtaining permission of the Institutional Animal Ethics Committee (IAEC).
as §2, §1

CCCCCCCCCCC[C@@H](C[C@@H]1OC(=O)[C@H]1CCCCCC)OC(=O)[C@H](CC(C)C)NC=O [orlistat]
Survival of tumor-bearing mice (B16F10 melanoma [1]): did not influence | Tumor progression (tumor volume and weight) (B16F10 melanoma [1]; DTIC 80 mg/kg i.p. 5 days, orlistat 10 mg/kg oral alternate days): unaltered | Tumor growth (B16F10 melanoma [2]): restricted tumor growth | Blood glucose ([3]; mean): 161.83 mg/dL | Serum IL-6 ([3]; mean): 19.99 pg/mL | Serum LDLc ([3]; mean): 51.26 mg/dL | Serum TG ([3]; mean): 54.93 mg/dL | Serum TNF-D ([3]; mean): 11.78 pg/mL | Serum adiponectin ([3]; mean): 13803 ng/mL | Serum cholesterol ([3]; mean): 81.36 mg/dL | Serum free fatty acids ([3]; mean): 0.89 mM/L | Serum insulin ([3]; mean): 0.116 µg/L | Serum leptin ([3]; mean): 15.43 ng/mL | Serum resistin ([3]; mean): 0.98 ng/mL | Body weight ([3]; mean (SD on next line)): 21.50 g | Differentiation of 3T3-L1 adipocytes (3T3-L1 adipocytes): inhibited | Body weight ([4]; HFD-HFD (continued on HFD), orlistat 10 mg/kg oral alternate days, DTIC 80 mg/kg i.p. 5 days): 26.16 ± 0.71 (p < 0.0001) g | Blood glucose ([4]; HFD-HFD): 146.3 ± 5.99 (p < 0.0001) mg/dl | Serum IL-6 ([4]; HFD-HFD): 35.45 ± 2.88 (p < 0.0001) pg/ml | Serum LDLc ([4]; HFD-HFD): 66.69 ± 3.42 (p < 0.0001) mg/dl | Serum TG ([4]; HFD-HFD): 66.03 ± 3.39 (p < 0.0001) mg/dl | Serum TNF-α ([4]; HFD-HFD): 13.78 ± 1.07 (p < 0.0001) pg/ml | Serum adiponectin ([4]; HFD-HFD): 8204 ± 593 (p < 0.0001) ng/ml | Serum cholesterol ([4]; HFD-HFD): 95.75 ± 4.91 (p < 0.0001) mg/dl | Serum free fatty acids ([4]; HFD-HFD): 1.74 ± 0.09 (p < 0.0001) mM/l | Serum insulin ([4]; HFD-HFD): 0.269 ± 0.01 (p < 0.0001) μg/l | Serum leptin ([4]; HFD-HFD): 33.74 ± 2.47 (p < 0.0001) ng/ml | Serum resistin ([4]; HFD-HFD): 1.66 ± 0.08 (p < 0.0001) ng/ml | Body weight ([4]; HFD-ND (shifted from HFD to normal diet)): 23.1 ± 1.02 (p < 0.0001) g | Blood glucose ([4]; HFD-ND): 128.83 ± 6.24 (p < 0.0001) mg/dl | Serum IL-6 ([4]; HFD-ND): 29.25 ± 2.12 (p < 0.0001) pg/ml | Serum LDLc ([4]; HFD-ND): 63.31 ± 3.13 (p < 0.0001) mg/dl | Serum TG ([4]; HFD-ND): 60.53 ± 3.15 (p < 0.0001) mg/dl | Serum TNF-α ([4]; HFD-ND): 11.48 ± 1.12 (p < 0.0001) pg/ml | Serum adiponectin ([4]; HFD-ND): 9108 ± 550 (p < 0.0001) ng/ml | Serum cholesterol ([4]; HFD-ND): 88.64 ± 5.17 (p < 0.0001) mg/dl | Serum free fatty acids ([4]; HFD-ND): 1.66 ± 0.08 (p < 0.0001) mM/l | Serum insulin ([4]; HFD-ND): 0.2570 ± 0.01 (p < 0.0001) μg/l | Serum leptin ([4]; HFD-ND): 26.54 ± 1.60 (p < 0.0001) ng/ml | Serum resistin ([4]; HFD-ND): 1.19 ± 0.06 (p < 0.0001) ng/ml
